Experimental data from patent publication US20260193226A1, “MICROBIOCIDAL TETRAHYDROISOQUINOLINE DERIVATIVES” (SYNGENTA CROP PROTECTION AG, priority 2022, published 2026).

Legend:
[1] = test system: Glomerella lagenarium (Colletotrichum lagenarium); experiment: Glomerella lagenarium (Colletotrichum lagenarium) / liquid culture (anthracnose); assay type: cell-based; details: Colletotrichum orbiculare, compared to untreated control
Description: Example B3: Glomerella lagenarium (Colletotrichum lagenarium)/Liquid Culture (Anthracnose) Conidia of the fungus from cryogenic storage are directly mixed into nutrient broth (PDB potato dextrose broth). After placing a (DMSO) solution of test compound into a microtiter plate (96-well format), the nutrient broth containing the fungal spores is added. The test plates are incubated at 24° C. and the inhibition of growth is measured photometrically 3 to 4 days after application.

[2] = test system: Monographella nivalis (Microdochium nivale); experiment: Monographella nivalis (Microdochium nivale) / liquid culture (foot rot cereals); assay type: cell-based; details: compared to untreated control
Description: (§1) Example B8: Monographella nivalis (Microdochium nivale)/Liquid Culture (Foot Rot Cereals) Conidia of the fungus from cryogenic storage are directly mixed into nutrient broth (PDB potato dextrose broth). After placing a (DMSO) solution of test compound into a microtiter plate (96-well format), the nutrient broth containing the fungal spores is added. The test plates are incubated at 24° C. and the inhibition of growth is determined photometrically 4 to 5 days after application.

[3] = test system: Mycosphaerella arachidis (Cercospora arachidicola); experiment: Mycosphaerella arachidis (Cercospora arachidicola) / liquid culture (early leaf spot); assay type: cell-based; details: compared to untreated control
Description: as §1, with “B9: Mycosphaerella arachidis (Cercospora arachidicola)/Liquid” for “B8: Monographella nivalis (Microdochium nivale)/Liquid”, “(Early Leaf Spot)” for “(Foot Rot Cereals)”

[4] = test system: Mycosphaerella graminicola (Septoria tritici); experiment: Mycosphaerella graminicola (Septoria tritici) / liquid culture (Septoria blotch); assay type: cell-based; details: Zymoseptoria tritici, compared to untreated control
Description: as §1, with “B15: Mycosphaerella graminicola (Septoria tritici)/Liquid” for “B8: Monographella nivalis (Microdochium nivale)/Liquid”, “(Septoria Blotch)” for “(Foot Rot Cereals)”

[5] = test system: Pyrenophora teres; experiment: Pyrenophora teres / barley / leaf disc preventative (net blotch); assay type: in vivo; details: foliar, compared to untreated control
Description: Example B12: Pyrenophora teres/Barley/Leaf Disc Preventative (Net Blotch) Barley leaf segments cv. Hasso are placed on agar in a multiwell plate (24-well format) and sprayed with the formulated test compound diluted in water. The leaf segments are inoculated with a spore suspension of the fungus 2 days after application. The inoculated leaf segments are incubated at 20° C. and 65% rh under a light regime of 12 h light/12 h darkness in a climate cabinet and the activity of a compound is assessed as disease control compared to untreated when an appropriate level of disease damage appears in untreated check leaf segments (5 to 7 days after application).

[6] = test system: Alternaria solani; experiment: Alternaria solani / tomato / leaf disc (early blight); assay type: in vivo; details: foliar, compared to untreated control
Description: Example B1: Alternaria solani/Tomato/Leaf Disc (Early Blight) Tomato leaf disks cv. Baby are placed on agar in multiwell plates (24-well format) and sprayed with the formulated test compound diluted in water. The leaf disks are inoculated with a spore suspension of the fungus 2 days after application. The inoculated leaf disks are incubated at 23° C./21° C.

Cc1c([C@H]2CN(C(=O)OCCC3CCCCC3)[C@@H](C)c3ccccc32)cnn1C (racemic) [Compound P-16, 2-cyclohexylethyl rac-(1S,4S)-4-(1,5-dimethylpyrazol-4-yl)-1-methyl-3,4-dihydro-1H-isoquinoline-2-carboxylate]
≥ 80%: inhibition of growth at 20 ppm [1] | inhibition of growth at 20 ppm [2] | inhibition of growth at 20 ppm [3] | inhibition of growth at 20 ppm [4]

Cc1c([C@H]2CN(C(=O)CCCC=C(F)F)[C@@H](C)c3ccccc32)cnn1C (racemic) [Compound P-26, 6,6-difluoro-1-[rac-(1S,4S)-4-(1,5-dimethylpyrazol-4-yl)-1-methyl-3,4-dihydro-1H-isoquinolin-2-yl]hex-5-en-1-one]
≥ 80%: inhibition of growth at 20 ppm [3] | inhibition of growth at 20 ppm [4]

Cc1c([C@H]2CN(C(=O)CCCCC(F)F)[C@@H](C)c3ccccc32)cnn1C (racemic) [Compound P-27, 6,6-difluoro-1-[rac-(1S,4S)-4-(1,5-dimethylpyrazol-4-yl)-1-methyl-3,4-dihydro-1H-isoquinolin-2-yl]hexan-1-one]
≥ 80%: inhibition of growth at 20 ppm [2] | inhibition of growth at 20 ppm [3] | pest or weed control at 200 ppm [5] | inhibition of growth at 20 ppm [4]

CCCCCOC(=O)N1C[C@H](c2cnn(C)c2C)c2ccccc2[C@@H]1C (racemic) [Compound P-28, pentyl rac-(1S,4S)-4-(1,5-dimethylpyrazol-4-yl)-1-methyl-3,4-dihydro-1H-isoquinoline-2-carboxylate]
≥ 80%: pest or weed control at 200 ppm [6] | inhibition of growth at 20 ppm [1] | inhibition of growth at 20 ppm [2] | inhibition of growth at 20 ppm [3] | inhibition of growth at 20 ppm [4]

Cc1c([C@H]2CN(C(=O)CCCCCC(F)(F)F)[C@@H](C)c3ccccc32)cnn1C (racemic) [Compound P-29, 7,7,7-trifluoro-1-[rac-(1S,4S)-4-(1,5-dimethylpyrazol-4-yl)-1-methyl-3,4-dihydro-1H-isoquinolin-2-yl]heptan-1-one]
≥ 80%: pest or weed control at 200 ppm [6] | inhibition of growth at 20 ppm [2] | inhibition of growth at 20 ppm [3] | pest or weed control at 200 ppm [5] | inhibition of growth at 20 ppm [4]

CCCCCNC(=O)N1C[C@H](c2cnn(C)c2C)c2ccccc2[C@@H]1C (racemic) [Compound P-43, rac-(1S,4S)-4-(1,5-dimethylpyrazol-4-yl)-1-methyl-N-pentyl-3,4-dihydro-1H-isoquinoline-2-carboxamide]
≥ 80%: inhibition of growth at 20 ppm [2] | inhibition of growth at 20 ppm [3] | pest or weed control at 200 ppm [5] | inhibition of growth at 20 ppm [4]

Cn1cc(C2CN(C(=O)CCc3ccc(F)cc3F)Cc3ccccc32)cn1 (centres unmarked) [Compound P-1, 3-(2,4-difluorophenyl)-1-[4-(1-methylpyrazol-4-yl)-3,4-dihydro-1H-isoquinolin-2-yl]propan-1-one]
≥ 80%: inhibition of growth at 20 ppm [3] | inhibition of growth at 20 ppm [4]

Cc1c(C2CN(C(=O)OCCC3CCCCC3)Cc3ccccc32)cnn1C (centres unmarked) [Compound P-2, 2-cyclohexylethyl 4-(1,5-dimethylpyrazol-4-yl)-3,4-dihydro-1H-isoquinoline-2-carboxylate]
≥ 80%: inhibition of growth at 20 ppm [1] | inhibition of growth at 20 ppm [2] | inhibition of growth at 20 ppm [3] | inhibition of growth at 20 ppm [4]

CCCCCCC(=O)N1Cc2ccccc2C(c2cnn(C)c2C)C1 (centres unmarked) [Compound P-4, 1-[4-(1,5-dimethylpyrazol-4-yl)-3,4-dihydro-1H-isoquinolin-2-yl]heptan-1-one]
≥ 80%: pest or weed control at 200 ppm [6] | inhibition of growth at 20 ppm [1] | inhibition of growth at 20 ppm [2] | inhibition of growth at 20 ppm [3] | inhibition of growth at 20 ppm [4]

Cc1c(C2CN(C(=O)CCc3ccc(F)cc3)Cc3ccccc32)cnn1C (centres unmarked) [Compound P-7, 1-[4-(1,5-dimethylpyrazol-4-yl)-3,4-dihydro-1H-isoquinolin-2-yl]-3-(4-fluorophenyl)propan-1-one]
≥ 80%: pest or weed control at 200 ppm [6] | inhibition of growth at 20 ppm [4]

CCCCCCCC(=O)N1Cc2ccccc2C(c2cnn(C)c2C)C1 (centres unmarked) [Compound P-10, 1-[4-(1,5-dimethylpyrazol-4-yl)-3,4-dihydro-1H-isoquinolin-2-yl]octan-1-one]
≥ 80%: inhibition of growth at 20 ppm [1] | inhibition of growth at 20 ppm [2] | inhibition of growth at 20 ppm [3] | inhibition of growth at 20 ppm [4]

Cc1c(C2CN(C(=O)CSc3ccc(F)cc3F)Cc3ccccc32)cnn1C (centres unmarked) [Compound P-14, 2-(2,4-difluorophenyl)sulfanyl-1-[4-(1,5-dimethylpyrazol-4-yl)-3,4-dihydro-1H-isoquinolin-2-yl]ethanone]
≥ 80%: inhibition of growth at 20 ppm [3] | inhibition of growth at 20 ppm [4]

Cc1c(C2CN(C(=O)CCCC(C)C)Cc3ccccc32)cnn1C (centres unmarked) [Compound P-19, 1-[4-(1,5-dimethylpyrazol-4-yl)-3,4-dihydro-1H-isoquinolin-2-yl]-5-methyl-hexan-1-one]
≥ 80%: inhibition of growth at 20 ppm [3] | inhibition of growth at 20 ppm [4]

Cc1c(C2CN(C(=O)CCc3ccc(Cl)cc3)Cc3ccccc32)cnn1C (centres unmarked) [Compound P-22, 3-(4-chlorophenyl)-1-[4-(1,5-dimethylpyrazol-4-yl)-3,4-dihydro-1H-isoquinolin-2-yl]propan-1-one]
≥ 80%: pest or weed control at 200 ppm [6] | inhibition of growth at 20 ppm [3] | pest or weed control at 200 ppm [5] | inhibition of growth at 20 ppm [4]

Cc1c(C2CN(C(=O)CCCCCC(F)(F)F)Cc3ccccc32)cnn1C (centres unmarked) [Compound P-30, 1-[4-(1,5-dimethylpyrazol-4-yl)-3,4-dihydro-1H-isoquinolin-2-yl]-7,7,7-trifluoro-heptan-1-one]
≥ 80%: inhibition of growth at 20 ppm [2] | inhibition of growth at 20 ppm [3] | inhibition of growth at 20 ppm [4]

CCCCCNC(=O)N1Cc2ccccc2C(c2cnn(C)c2C)C1 (centres unmarked) [Compound P-31, 4-(1,5-dimethylpyrazol-4-yl)-N-pentyl-3,4-dihydro-1H-isoquinoline-2-carboxamide]
≥ 80%: pest or weed control at 200 ppm [6] | inhibition of growth at 20 ppm [3] | pest or weed control at 200 ppm [5] | inhibition of growth at 20 ppm [4]

Cc1c(C2CN(C(=O)NCC3CCCCC3)Cc3ccccc32)cnn1C (centres unmarked) [Compound P-36, N-(cyclohexylmethyl)-4-(1,5-dimethylpyrazol-4-yl)-3,4-dihydro-1H-isoquinoline-2-carboxamide]
≥ 80%: pest or weed control at 200 ppm [5] | inhibition of growth at 20 ppm [4]

Cc1c(C2CN(C(=O)NCCC3CCCCC3)Cc3ccccc32)cnn1C (centres unmarked) [Compound P-42, N-(2-cyclohexylethyl)-4-(1,5-dimethylpyrazol-4-yl)-3,4-dihydro-1H-isoquinoline-2-carboxamide]
≥ 80%: inhibition of growth at 20 ppm [2] | inhibition of growth at 20 ppm [3] | inhibition of growth at 20 ppm [4]

Cc1c(C2CN(C(=O)NCCCCCF)Cc3ccccc32)cnn1C (centres unmarked) [Compound P-49, 4-(1,5-dimethylpyrazol-4-yl)-N-(5-fluoropentyl)-3,4-dihydro-1H-isoquinoline-2-carboxamide]
≥ 80%: pest or weed control at 200 ppm [5] | inhibition of growth at 20 ppm [4]

Cc1c(C2CN(C(=O)NCCCCC(F)F)Cc3ccccc32)cnn1C (centres unmarked) [Compound P-50, N-(5,5-difluoropentyl)-4-(1,5-dimethylpyrazol-4-yl)-3,4-dihydro-1H-isoquinoline-2-carboxamide]
≥ 80%: pest or weed control at 200 ppm [5] | inhibition of growth at 20 ppm [4]

Cc1c([C@H]2CN(C(=O)NCCCC3CC3)[C@@H](C)c3ccccc32)cnn1C [Compound P-51, (1S,4S)-N-(3-cyclopropylpropyl)-4-(1,5-dimethylpyrazol-4-yl)-1-methyl-3,4-dihydro-1H-isoquinoline-2-carboxamide]
≥ 80%: inhibition of growth at 20 ppm [3] | inhibition of growth at 20 ppm [4]

Cc1c(C2CN(C(=O)OCCCCC(F)F)Cc3ccccc32)cnn1C (centres unmarked) [Compound P-54, 5,5-difluoropentyl 4-(1,5-dimethylpyrazol-4-yl)-3,4-dihydro-1H-isoquinoline-2-carboxylate]
≥ 80%: inhibition of growth at 20 ppm [3] | inhibition of growth at 20 ppm [4]

Cc1c(C2CN(C(=O)OCCCCCF)Cc3ccccc32)cnn1C (centres unmarked) [Compound P-55, 5-fluoropentyl 4-(1,5-dimethylpyrazol-4-yl)-3,4-dihydro-1H-isoquinoline-2-carboxylate]
≥ 80%: inhibition of growth at 20 ppm [3] | inhibition of growth at 20 ppm [4]
